Measured values taken from patent US20240208912A1 (Mirati Therapeutics, Inc., priority 2021, published 2024).
Structures can show the parent of a compound that is named as a salt. Where two headings read alike, the source gives them in different places.

Assays:
PRMT5/MEP50 complex = target: T1, PRMT5/MEP50 complex (Homo sapiens, UniProt O14744); experiment: PRMT5:MEP50 HotSpot Assay (full-length histone H2A substrate, plus and minus MTA); assay type: biochemical; conditions: IC50 + 2 μM MTA, in the presence of 2 μM MTA
T1 construct: purchased Reaction Biology Corporation
T1 sequence (O14744 2-637 limits assumed): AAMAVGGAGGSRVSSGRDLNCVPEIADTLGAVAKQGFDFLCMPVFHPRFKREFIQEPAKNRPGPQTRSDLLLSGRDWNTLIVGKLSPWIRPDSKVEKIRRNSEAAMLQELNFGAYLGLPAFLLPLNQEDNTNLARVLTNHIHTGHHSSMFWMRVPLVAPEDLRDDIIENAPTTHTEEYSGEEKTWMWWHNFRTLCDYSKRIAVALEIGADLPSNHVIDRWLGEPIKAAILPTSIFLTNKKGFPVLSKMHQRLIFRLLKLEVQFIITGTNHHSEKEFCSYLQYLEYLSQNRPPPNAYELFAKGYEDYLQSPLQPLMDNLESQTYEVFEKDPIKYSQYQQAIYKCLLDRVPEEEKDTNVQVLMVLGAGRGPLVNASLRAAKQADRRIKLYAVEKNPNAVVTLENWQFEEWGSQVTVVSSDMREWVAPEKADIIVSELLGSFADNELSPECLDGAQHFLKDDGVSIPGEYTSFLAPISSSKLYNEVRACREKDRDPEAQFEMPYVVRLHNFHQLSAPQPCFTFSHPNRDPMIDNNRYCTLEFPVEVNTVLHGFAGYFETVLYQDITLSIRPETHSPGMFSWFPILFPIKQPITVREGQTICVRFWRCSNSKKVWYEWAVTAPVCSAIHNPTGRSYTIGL
T1 sequence (Q9BQA1 2-342 partner limits assumed): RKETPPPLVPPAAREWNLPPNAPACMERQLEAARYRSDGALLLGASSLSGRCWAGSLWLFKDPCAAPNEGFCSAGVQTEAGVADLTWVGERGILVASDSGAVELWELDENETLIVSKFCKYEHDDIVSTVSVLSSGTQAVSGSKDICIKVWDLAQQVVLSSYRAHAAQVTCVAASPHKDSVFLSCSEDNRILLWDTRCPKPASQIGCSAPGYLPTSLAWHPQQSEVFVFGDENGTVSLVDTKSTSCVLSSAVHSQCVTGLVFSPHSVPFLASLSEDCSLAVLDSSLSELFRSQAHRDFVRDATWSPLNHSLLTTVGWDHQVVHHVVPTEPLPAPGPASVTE
Summary of the method: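 Radiometric HotSpot format using recombinant full-length histone H2A as substrate, run with and without MTA. Reactions were stopped and spotted onto filter paper. Tritiated H2A was quantified by scintillation counting.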

[1] = system: HCT116 homozygous MTAP knockout cells; experiment: Proliferation assay (CellTiter-Glo, 10 days) in HCT116 homozygous MTAP knockout cells; assay type: cell-based; conditions: CellTiter-Glo after 10 days of treatment, read-out: Proliferation IC50 (nM) HCT116 MTAP_KO
Procedure: HCT116 cells were genetically engineered to knock out the function of both MTAP alleles using a CRISPR/Cas9 system and an sgRNA targeting the MTAP gene. Following Cas9/MTAP sgRNA transduction, clones were screened to confirm that each allele of the MTAP gene had been inactivated (i.e., homozygous MTAP knock out) creating an MTAP-deficient cell.
Control samples were analyzed in parallel.
Briefly, on Day 0, 250 HCT116 parental or HCT116 homozygous MTAP knockout cell were seeded in 96 well plates in McCoy's 5A supplemented with […] fetal bovine serum and pen/strep and the cells were incubated overnight at 37° C. plus 5% CO2.
The following day, cells were treated with DMSO vehicle control or a dose response of PRMT5 inhibitors and incubated at 37 C plus 5% CO2 for five days. On Day 6, the cells were trypsinized and split 1:10 into new 96-well plates with fresh medium containing the same concentration of PRMT5 inhibitor and incubated for an additional 5 days at 37° C. plus 5% CO^2.
On Day 11, the viability of the cells was measured using a CTG assay kit (CellTiter-Glo; Promega cat.no G7573) in accordance with the manufacturer's instructions. The IC50 values for each compound after 10 days of treatment were calculated using GraphPad PRISM software.

| IC50 (PRMT5/MEP50 complex) | IC50 [1] | IC50 ([1]; Homo sapiens, HCT-116, 240 h) | SMILES |
| --- | --- | --- | --- |
| 248 nM | 138 nM | – | Cn1ncc(-c2ccc3c(=O)[nH]nc(CN)c3c2)c1-c1c(F)cc2c(c1C#N)OCCO2 (single isomer, unassigned) [Example 16-90, (M)-6-[4-[4-(aminomethyl)-1-oxo-2H-phthalazin-6-yl]-2-methyl-pyrazol-3-yl]-7-fluoro-2,3-dihydro-1,4-benzodioxine-5-carbonitrile] |
| 204 nM | 187 nM | – | C[C@@H]1C[C@H]1Oc1ccc(F)c(-c2c(-c3ccc4c(=O)[nH]nc(CN)c4c3)cnn2C)c1C#N (atropisomer, axis not shown; (P)) [Example 16-65, (P)-2-(4-(4-(aminomethyl)-1-oxo-1,2-dihydrophthalazin-6-yl)-1-methyl-1H-pyrazol-5-yl)-3-fluoro-6-((1R,2R)-2-methylcyclopropoxy)benzonitrile] |
| 111 nM | 41 nM | – | CCOc1cc(-c2cnn(C)c2-c2c(F)c(C)cc(OC3CC3)c2C#N)cc2c(CN)n[nH]c(=O)c12 (single isomer, unassigned) [Example 16-76, (M)-2-[4-[4-(aminomethyl)-8-ethoxy-1-oxo-2H-phthalazin-6-yl]-2-methyl-pyrazol-3-yl]-6-(cyclopropoxy)-3-fluoro-4-methyl-benzonitrile] |
| 1140 nM | 231 nM | – | Cc1cnc2c(C#N)c(-c3c(-c4ccc5c(=O)[nH]nc(CN)c5c4)cnn3C)c(F)c(C)c2c1 (atropisomer, axis not shown; (M)) [Example 16-94, (M)-7-(4-(4-(aminomethyl)-1-oxo-1,2-dihydrophthalazin-6-yl)-1-methyl-1H-pyrazol-5-yl)-6-fluoro-3,5-dimethylquinoline-8-carbonitrile] |
| 308 nM | – | 149 nM | N#Cc1c(-c2c(-c3ccc4c(=O)[nH]nc(CN)c4c3)cnn2C(F)F)sc2ccccc12 [Example 19-3, 2-(4-(4-(aminomethyl)-1-oxo-1,2-dihydrophthalazin-6-yl)-1-(difluoromethyl)-1H-pyrazol-5-yl)benzo[b]thiophene-3-carbonitrile] |
| 1360 nM | 514 nM | – | Cn1ncc(-c2ccc3c(=O)[nH]nc(CN)c3c2)c1-c1c(F)cc2c(c1C#N)OCCO2 (single isomer, unassigned) [Example 16-89, (P)-6-[4-[4-(aminomethyl)-1-oxo-2H-phthalazin-6-yl]-2-methyl-pyrazol-3-yl]-7-fluoro-2,3-dihydro-1,4-benzodioxine-5-carbonitrile] |
| 575 nM | – | 2680 nM | Cn1ncc(-c2ccc3c(=O)[nH]nc(CN)c3c2)c1-c1ccc2n1C(=O)CC2 [Example 4-260, 4-(aminomethyl)-6-[1-methyl-5-(5-oxo-6,7-dihydropyrrolizin-3-yl)pyrazol-4-yl]-2H-phthalazin-1-one] |
| 4100 nM | 264 nM | – | CCOc1cc(-c2cnn(C)c2-c2c(F)c(Cl)cc(OC3CC3)c2C#N)cc2c(CN)n[nH]c(=O)c12 (single isomer, unassigned) [Example 16-77, (P)-2-[4-[4-(aminomethyl)-8-ethoxy-1-oxo-2H-phthalazin-6-yl]-2-methyl-pyrazol-3-yl]-4-chloro-6-(cyclopropoxy)-3-fluoro-benzonitrile] |
| 76 nM | – | 166 nM | CCOc1cc(-c2cnn(C)c2-c2sc3ccccc3c2C#N)cc2c(CN)n[nH]c(=O)c12 [Example 10-24, 2-(4-(4-(aminomethyl)-8-ethoxy-1-oxo-1,2-dihydrophthalazin-6-yl)-1-methyl-1H-pyrazol-5-yl)benzo[b]thiophene-3-carbonitrile] |
| 19.3 nM | 16 nM | – | Cn1ncc(-c2ccc3c(=O)[nH]nc(CN)c3c2)c1-c1c(F)cc2ncc(Cl)cc2c1C#N (single isomer, unassigned) [Example 16-31, (M)-6-[4-[4-(aminomethyl)-1-oxo-2H-phthalazin-6-yl]-2-methyl-pyrazol-3-yl]-3-chloro-7-fluoro-quinoline-5-carbonitrile] |
| 173 nM | 1070 nM | – | Cc1cc(OC2CC2)c(C#N)c(-c2c(-c3ccc4c(=O)[nH]nc(CN)c4c3)cnn2C)c1F (single isomer, unassigned) [Example 16-19, (P)-2-[4-[4-(aminomethyl)-1-oxo-2H-phthalazin-6-yl]-2-methyl-pyrazol-3-yl]-6-(cyclopropoxy)-3-fluoro-4-methyl-benzonitrile] |
| 647 nM | – | 1030 nM | N#Cc1c(-c2c(-c3ccc4c(=O)[nH]nc(CN)c4c3)cnn2C(F)(F)F)sc2ccccc12 [Example 19-4, 2-(4-(4-(aminomethyl)-1-oxo-1,2-dihydrophthalazin-6-yl)-1-(trifluoromethyl)-1H-pyrazol-5-yl)benzo[b]thiophene-3-carbonitrile] |
| > 10000 nM | – | 10000 nM | Cn1ncc(-c2ccc3c(=O)[nH]nc(C4(N)CC4)c3c2)c1-c1sc2ccccc2c1C#N [Example 9-8, 2-(4-(4-(1-aminocyclopropyl)-1-oxo-1,2-dihydrophthalazin-6-yl)-1-methyl-1H-pyrazol-5-yl)benzo[b]thiophene-3-carbonitrile] |
| 4250 nM | – | 10000 nM | Cn1ncc(-c2ccc3c(=O)[nH]nc(C4CNC4)c3c2)c1-c1sc2ccccc2c1C#N [Example 9-12, 2-[4-[4-(azetidin-3-yl)-1-oxo-2H-phthalazin-6-yl]-2-methyl-pyrazol-3-yl]benzothiophene-3-carbonitrile] |
| 83.8 nM | 39 nM | – | Cn1ncc(-c2ccc3c(=O)[nH]nc(CN)c3c2)c1-c1c(F)cc2c(c1C#N)OCCC2 (atropisomer, axis not shown; (M)) [Example 16-38, (M)-7-[4-[4-(aminomethyl)-1-oxo-2H-phthalazin-6-yl]-2-methyl-pyrazol-3-yl]-6-fluoro-chromane-8-carbonitrile] |
| 183 nM | – | 269 nM | COCc1cccc2c(C#N)c(-c3c(-c4ccc5c(=O)[nH]nc(CN)c5c4)cnn3C)sc12 [Example 12-20, 2-[4-[4-(aminomethyl)-1-oxo-2H-phthalazin-6-yl]-2-methyl-pyrazol-3-yl]-7-(methoxymethyl) benzothiophene-3-carbonitrile hydrochloride] |
| 119 nM | – | 132 nM | Cn1ncc(-c2ccc3c(=O)[nH]nc(CN)c3c2)c1-c1sc2ncc(Cl)cc2c1C#N [Example 4-263, 2-[4-[4-(aminomethyl)-1-oxo-2H-phthalazin-6-yl]-2-methyl-pyrazol-3-yl]-5-chloro-thieno[2,3-b]pyridine-3-carbonitrile] |
| 2230 nM | 321 nM | – | Cn1ncc(-c2cc(Cl)c3c(=O)[nH]nc(CN)c3c2)c1-c1c(F)c(Cl)cc(OC2CC2)c1C#N (single isomer, unassigned) [Example 16-27, (P)-2-[4-[4-(aminomethyl)-8-chloro-1-oxo-2H-phthalazin-6-yl]-2-methyl-pyrazol-3-yl]-4-chloro-6-(cyclopropoxy)-3-fluoro-benzonitrile] |
| 485 nM | 538 nM | – | Cn1ncc(-c2ccc3c(=O)[nH]nc(CN)c3c2)c1-c1c(C#N)c(OC2CC2)c2ccccc2c1Cl (single isomer, unassigned) [Example 16-23, (P)-3-[4-[4-(aminomethyl)-1-oxo-2H-phthalazin-6-yl]-2-methyl-pyrazol-3-yl]-4-chloro-1-(cyclopropoxy)naphthalene-2-carbonitrile] |
| 146 nM | – | 587 nM | CCn1ncc(-c2ccc3c(=O)[nH]nc(CN)c3c2)c1-c1sc2ccccc2c1C#N [Example 19-1, 2-[4-[4-(aminomethyl)-1-oxo-2H-phthalazin-6-yl]-2-ethyl-pyrazol-3-yl]benzothiophene-3-carbonitrile] |
| 28.7 nM | 7 nM | – | Cn1ncc(-c2cc(Cl)c3c(=O)[nH]nc(CN)c3c2)c1-c1c(F)cc2ncc(Cl)cc2c1C#N (single isomer, unassigned) [Example 16-62, (M)-6-[4-[4-(aminomethyl)-8-chloro-1-oxo-2H-phthalazin-6-yl]-2-methyl-pyrazol-3-yl]-3-chloro-7-fluoro-quinoline-5-carbonitrile] |
| 36 nM | 13 nM | – | Cc1cc(OC2CC2)c(C#N)c(-c2c(-c3ccc4c(=O)[nH]nc(CN)c4c3)cnn2C)c1F (single isomer, unassigned) [Example 16-20, (M)-2-[4-[4-(aminomethyl)-1-oxo-2H-phthalazin-6-yl]-2-methyl-pyrazol-3-yl]-6-(cyclopropoxy)-3-fluoro-4-methyl-benzonitrile] |
| 26.4 nM | 12 nM | – | Cn1ncc(-c2cc(Cl)c3c(=O)[nH]nc(CN)c3c2)c1-c1c(F)cc2ccccc2c1C#N (single isomer, unassigned) [Example 16-12, (M)-(4-(4-(aminomethyl)-8-chloro-1-oxo-1,2-dihydrophthalazin-6-yl)-1-methyl-1H-pyrazol-5-yl)-3-fluoro-1-naphthonitrile] |
